Consider six molecules from patent US6995283B2, “Benzophenones as inhibitors of reverse transcriptase” (priority 2001, dated 2006).

The nature of one data set: Solubility. In kind it is physicochemical. The method, then: A stir bar was put in the vial. The vials were closed with caps and placed on stir plate. […] After equilibration, the samples were centrifuged. An accurate aliquot of clear solution was transferred to a HPLC vial by micropipette. The solubility was determined by HPLC with UV detector and against standard.

Data set [1] in a line: Pharmacokinetic studies in male beagle dogs. In kind it is in vivo, beagle dog. The method, then: Compound 34 (634A in tables and on plots) was dosed as a solid as well as in solution form to male beagle dogs according to the following protocol. Plasma samples were analyzed using the following methods:
Blood samples from the test animals were drawn at periodic intervals, before, and after administration of the test articles. The samples were dispensed into chilled (˜+4° C.) blood tubes containing EDTA anticoagulant which were stored “on ice” (˜+4° C.) prior to centrifugation and separation of the plasma fractions. The plasma samples were transferred to frozen storage (−20° C.) within 30 minutes of blood sampling.
The plasma samples were thawed at room temperature, vortex-mixed for 10 seconds, and 100 μL aliquots transferred to 96-well micro-plates. […]
The supernatant fractions of the wells were transferred to a fresh micro-plate and then evaporated to dryness at 37° C. under a stream of (O2-free) nitrogen. The well residues were reconstituted in 100 μL volumes of acetonitrile:water:acetic acid (40:59.9:0.1 v/v/v) and 20 μL volumes were analyzed by HPLC-MS-MS. […]
The measurement of signal peaks areas, calibration and quantification were carried out using the Turbo-Quan V1.5 (Sciex Inc.) data acquisition and processing software (DAQ) suite. […]

A short description of data set [2]: Oral bioavailability in male Sprague-Dawley rats. Format: in vivo, Sprague-Dawley (CD) rat. Conditions: for AUC(0-inf): rat, plasma. The method, then:
Methods used were generally as described in Example 53, with the following modifications: Sample Collection—In addition to anticoagulant (EDTA), an enzyme inhibitor cocktail containing 50 μL of 100 mM AEBSF (4-(2-aminoethyl)benzenessulfonylfluoride HCl, CalBioChem, cat. no. 101500); 200 mM Benzamide(CalBioChem, cat. no. 199001); and 200 mM EACA (Epislon Amino-n-caproic acid, CalBioChem cat. no. 1381) in FTA Hemaglutionation Buffer (Becton Dickson, cat. no. 4311248) per 1 mL of blood was added to rat blood samples at the time of collection.
HPLC-MS-MS Conditions—Chromatography was performed on a Phenomenex Aqua C18 HPLC Mercury Cartridge (3-micron particle size, 20 mm×2 mm id) or Luna C18 column (50×2 mm).

A further data set concerns HIV-1 wild type virus. Kind of data set: Anti-HIV activity of parent compounds, wild type virus (Table 1; HeLa-CD4-LTR-β-gal cell assay). In kind it is cell-based. The note with it: Human immunodeficiency virus 1, read-out: Wt. The method, then:
(§1) The HeLa cell assay was performed according to a modifcation of Kimpton J. and Emerman M., Detection of replication-competent and pseudotyped human inmmunodeficiency virus with a sensitive cell line on the basis of activation of an integrated β-galactosidase gene, J. Virol. 66:2232-2239 (1992), in which HIV-1 infection is detected by the activation of an HIV-LTR driven β-galactosidase reporter that is integrated into the genome of a CD4^+ HeLa cell line. Quantitation of β-galactosidase is achieved by measuring the activation of a chemiluminescent substrate (Tropix). The concentration of each compound required to inhibit 50% (IC50) of the HIV-1 induced β-galactosidase signal, relative to untreated controls, was determined for each isogenic, recombinant virus.
(§2) HeLa-CD4-LTR-β-gal cells are propagated in DMEM containing 10% fetal bovine serum+0.2 mg/ml geneticin+0.1 mg/ml hygromycin B. Cells are split by standard trypsinization when confluency reaches 80% (roughly every 2 to 3 days).
(§3) DNA encoding the HIV-1 reverse transcriptase was subcloned from a M13 phage into a general shuttle vector, pBCSK+, as a ˜1.65 kbp EcoRI/HindIII ended DNA fragment. The HIV DNA insert of the resulting plasmid, pRT2, was completely sequenced on both strands prior to use in site directed mutagenesis experiments. Specific amino acid replacements were made using Stratagene Quick Change reagents and mutagenic oligonucleotides from Oligos. […]
(§4) Mutant HIV-1 strains were isolated by a modified Recombinant Virus Assay (Kellamn P. and Larder B., Recombinant virus assay: a rapid, phenotypic assay for assessment of drug susceptibility of human immunodeficiency virus type 1 isolates, Antimicrobial Agents and Chemotherapy, 38:23-30,1994). […] Transfected cell cultures were expanded and monitored until syncitia formation and CPE were extensive. […]
(§5) HIV-1 virus stocks must be titered in the MAGI assay system to establish the appropriate infecting dose. The endpoint for this assay is relative light units (RLUs), and titer is recorded as RLUs/ml. […]

In another data set the test system is Nev-R mutant virus. In words: Anti-HIV activity of parent compounds, Nev-R mutant virus (Table 1; HeLa-CD4-LTR-β-gal cell assay). Format: cell-based, HIV-1. Conditions: Human immunodeficiency virus 1, read-out: Nev-R. The method, then:
as §1, §2, §3, §4, §5

≈ marks a conversion by molar mass, not a printed value. Where a name gives a salt, the structure may show the parent alone. Read-outs that look alike come from different tables or passages of the source.

What is called solubility is how much of the substance goes into solution per volume.

`CCC(=O)NS(=O)(=O)c1ccc(NC(=O)COc2ccc(Cl)cc2C(=O)c2cc(Cl)cc(C#N)c2)c(C)c1.[Ca]` [Calcium salt, 2-[4-chloro-2-(3-chloro-5-cyanobenzoyl)phenoxy]-N-{2-methyl-4-[(propionylamino)sulfonyl]phenyl}acetamide, Calcium Salt, Form 2] registered a solubility in “Solubility” (water, Crystal Form 2) of 0.7 mg/mL.

As to `CCC(=O)NS(=O)(=O)c1ccc(NC(=O)COc2ccc(Cl)cc2C(=O)c2cc(Cl)cc(C#N)c2)c(C)c1` [Compound 34, 2-[4-chloro-2-(3-chloro-5-cyanobenzoyl)phenoxy]-N-{2-methyl-4-[(propionylamino)sulfonyl]phenyl}acetamide, Sodium Salt], the “appearance of active inhibitor compound 40 in plasma after administration” value in data set [1] and in data set [2] was “appears in the plasma” in each case. Moreover, the “bioavailability after oral administration (in words)” value in data set [1] (oral) is on record as “excellent bioavailability”; in data set [2] (oral, in comparison to the parent compound 40) it was “improved bioavailability”. Also, the solubility in “Solubility” (water, thermodynamic from solid, water, Amorphous, read-out: Solubility) is greater than 100 mg/mL; in the data set “Solubility” (water, thermodynamic from solid, water, Crystal Form 1, read-out: Solubility) it was 92 mg/mL; in “Solubility” (water, thermodynamic from solid, water, Crystal Form 4, read-out: Solubility), 2.5 mg/mL; in the data set “Solubility” (water, thermodynamic from solid, water, Crystal Form 9, read-out: Solubility) it was greater than 100 mg/mL; in the data set “Solubility” (water, thermodynamic from solid, water, Crystal Form 10, read-out: Solubility), greater than 100 mg/mL; in “Solubility” (water, thermodynamic from solid, water, Crystal Form 12, read-out: Solubility), greater than 100 mg/mL.

`Cc1cc(S(N)(=O)=O)ccc1NC(=O)COc1ccc(Cl)cc1C(=O)c1cc(Cl)cc(C#N)c1` [Compound 40, N-[4-(aminosulfonyl)-2-methylphenyl]-2-[4-chloro-2-(3-chloro-5-cyanobenzoyl)phenoxy]acetamide]: the IC50 is 0.5 to 1.8 nM in the data set with HIV-1 wild type virus and 0.4 to 1.2 nM with Nev-R mutant virus. For the same molecule, in data set [2] (free acid, Amorph., PO (soln) 1 mg/kg, DMSO:Tween-80:5% Mannitol (20:0.1:79.9)), the “Mean Exposures of 40 Fapp” value is listed as 7%. Further, the AUC(0-inf) in data set [2] (free acid, Amorph., IV 1 mg/kg, PEG400:Solutol:Water (30:20:50), read-out: Mean Exposures of 40 AUC0-∞) is 1740 ± 363 ng·h/mL; in data set [2] (free acid, Amorph., PO (soln) 1 mg/kg, DMSO:Tween-80:5% Mannitol (20:0.1:79.9), n = 1, read-out: Mean Exposures of 40 AUC0-∞), 128 ng·h/mL. For the same molecule, in “Solubility” (fassgf or other biorelevant, thermodynamic from solid, SIF, Crystal Form 1, read-out: Solubility), the solubility came to 0.0029 mg/mL (≈ 5.59 µM).

Take `CCC(=O)NS(=O)(=O)c1ccc(NC(=O)COc2ccc(Cl)cc2C(=O)c2cc(Cl)cc(C#N)c2)c(C)c1` [Compound 41, 2-[4-chloro-2-(3-chloro-5-cyanobenzoyl)phenoxy]-N-{2-methyl-4-[(propionylamino)sulfonyl]phenyl}acetamide]: in the data set “Solubility” (in comparison with compound 40), the “solubility (in words)” value was “improved solubility”.

Take `Cc1cc(S(N)(=O)=O)ccc1NC(=O)COc1ccc(Cl)cc1C(=O)c1cc(C#N)cc(C(F)(F)F)c1` [Compound 58]: the IC50 in the data set on HIV-1 wild type virus was 2.4 nM; with Nev-R mutant virus it was 0.9 nM.

In the case of `Cc1cc(S(N)(=O)=O)ccc1NC(=O)COc1ccc(Cl)cc1C(=O)c1cc(F)cc(C(F)(F)F)c1` [Compound 71], the IC50 in the data set on HIV-1 wild type virus lay in the range of 0.1 to 28 nM; in the data set on Nev-R mutant virus, 0.4 to 14 nM.
